According to patent publication US9555130B2, “Compositions and methods for in vivo imaging of myelin in the peripheral nervous system” (Case Western Reserve University, priority 2010, dated 2017):

Experiments:
[1] = system: CNS myelin; conditions: previously shown; cited from earlier work
[2] = system: sciatic nerve (PNS myelin); assay: Ex vivo staining of sciatic nerve after tail vein injection, microscope and FLI; type: in vivo, wild type mouse; conditions: post tail vein injection; tissue section under microscope
Source text: Ex Vivo Staining Procedure: (1) Injection of BDB via tail vein in wild type mouse; (2) Removal of sciatic nerve imbedded in muscle from right side; (3) Sectioning of muscle with nerve; (4) Observation of tissue under microscope to check staining; (5) Removal of left sciatic nerve from muscle; and (6) Observation of fluorescent in FLI machine.
An FLI machine picked up fluorescence from sciatic nerve placed in a tube with 4% paraformaldehyde (PFA) solution (FIG. 6).

[3] = system: sciatic nerve (PNS myelin); assay: In vitro staining of sciatic nerve tissue sections, fluorescent microscopy; parameters: species or system wild type mouse; conditions: tissue section of sciatic nerve with surrounding muscle; confirmed by Black and Gold staining of adjacent section
Source text: In Vitro Staining Procedure: (1) Removal of wild type mouse sciatic nerve imbedded in muscle; (2) Sectioning of muscle with nerve with cryostat; (3) Chemical staining of tissue section of sciatic nerve with muscle tissue surrounded it; (4) Observation under fluorescent microscopy; (5) A Black and Gold staining of adjacent tissue section; and (6) Observation under regular microscope.
The staining of the sciatic nerve was confirmed by the Black and Gold staining of the adjacent tissue section (see FIG. 4).

[4] = Solubility of BDB in organic solvents; type: physicochemical
[5] = system: sciatic nerve (PNS myelin); assay: In vivo imaging of sciatic nerve by multiphoton microscope; parameters: species or system wild type mouse; conditions: live anesthetized mouse, exposed sciatic nerve
Source text: In Vivo Staining Procedure: (1) Shave fur off region where sciatic nerve is located; (2) Cut soft tissue and muscle tissue covering sciatic nerve using surgical scissors; (3) Place animal under multiphoton microscope while anesthetized with isoflurane gas; and (4) Take live images of nerve.

[6] = Excitation and emission spectra (Cary Eclipse fluorescent spectrophotometer); type: physicochemical; conditions: 1 μM in DMSO
Experimental: FIG. 2 illustrates excitation and emission spectra of (E,E)-1,4-bis(4-aminostyryl)-2-dimethoxy-benzene (BDB) (1 μM in […]). Excitation spectra: emission at 510 nm (range 300-500 nm), bandwidth at 5 nm, scan at 120 nm/mm, integration time 0.5 sec. and maximal excitation wavelength at 426 nm. Emission spectra: excitation at 426 nm (range 430-650 nm), bandwidth at 5 nm, scan at 120 nm/min. integration time of 0.5 sec. and maximal emission wavelength at 506 nm.
Excitation and emission spectra of BDB (1 μM in DMSO) recorded using a Cary Eclipse fluorescent spectrophotometer (Variant Inc.; Palo Alto, Calif.) are shown in FIG. 2. Maximal excitation and emission peaks were found at 426 nm and 506 nm, respectively.

For `COc1cc(/C=C/c2ccc(N)cc2)c(OC)cc1/C=C/c1ccc(N)cc1` [BDB, (E,E)-1,4-bis(4′-aminostyryl)-2-dimethoxy-benzene], the “binding to myelin and retention in CNS white matter” value [1] is given as “selectively binds to myelin and is retained in CNS white matter”, the “staining of sciatic nerve ex vivo” value [2] is given as “successfully stained” and the “staining of sciatic nerve in vitro” value [3] is given as “selectively stained the sciatic nerve”. The solubility [4] was “soluble in CH2Cl2, DMSO, and in most other organic solvents”, the “staining of intact myelin sheaths in peripheral nervous system tissue in vivo” value [5] was “selectively stains intact myelin sheaths” and the maximal emission peak [6] was 506 nm. It also gave a maximal excitation peak [6] of 426 nm.
